These are literature values, as cited in patent US10561602B2 (priority 2015, dated 2020).

Molecules are shown by their SMILES.

For data set [1] the following is noted: n-octanol/0.05 M phosphate buffer at pH 7.4.
For data set [2] the following is noted: water and both basic and acidic aqueous solutions.

In the case of `CC(C)C[C@H](CN)CC(=O)O` [Pregabalin, (S)-3-(aminomethyl)-5-methylhexanoic acid], the “log of the partition coefficient” value in data set [1] is given as “about −1.35”. The solubility result in data set [2] is recorded as “freely soluble”.
